Measurements: patent publication US20120035221A1, “Method of Fungal Pathogen Control in Grass or Turf” (priority 2004, published 2012)

Tests used:
[1] = tested on: Sclerotinia homoeocarpa (Dollar Spot); assay: Dollar Spot infection of bentgrass 'Crenshaw' turf flats (Example 1); type: in vivo; conditions: for % Dollar Spot: imidacloprid alone 481 g/Ha
Experimental: Bentgrass var. ‘Crenshaw’ was seeded in 10 in.×12 in. (25 cm×30 cm) peat flats containing steam sterilized 80/20 greens mix. Flats were watered daily with an overhead misting system. Plots were fertilized with 200 ml of a 288 ppm 20-20-20 Regal Green fertilizer solution 23 days later. lmidacloprid (481 g/Ha) was applied according to the Merit® insecticide label the same day that fertilizer was applied. Fungicide treatments were applied 7 days later with a CO2 backpack sprayer at 2.0 gal./1000 ft^2 (i.e., 81.5 liters/1000 m^2) with a single 8003E nozzle. Two doses of each fungicide were tested. Plots were inoculated with Sclerotinia homoeocarpa (Dollar Spot) 2 days after the fungicides were applied by placing two 1-in. (2.5-cm) pieces of infested fescue leaves on each flat. Results are presented in Table 1 (where B+a number represents days after application of the herbicide component).

Curvularia [2] = assay: Curvularia on bermudagrass 'TifEagle', golf course field trial (Example 8); type: in vivo; conditions: for % turf infected with disease (Curvularia): imidacloprid 0.4 lb/A single application, fungicide programs every two weeks
Experimental: Established bermudagrass (cv. ‘TifEagle’) on a golf course in Florida was treated in late spring with imidacloprid at 0.4 lb/A (i.e., 0.45 kg/Ha). For comparison, two different fungicide spray programs were applied to nearby plots. The two fungicide spray programs were (1) fosetyl+iprodione at (4 oz.+4 oz.) per 1000 ft^2 [(1.2 g+1.2 g) per m^2] alternated with fosetyl+trifloxystrobin at (4 oz.+0.15 oz.) per 1000 ft^2 [(1.2 g+46 mg) per m^2], and (2) fosetyl+iprodione at (4 oz.+4 oz.) per 1000 ft^2 [(1.2 g+1.2 g) per m^2] alternated with flutolanil at 2.2 oz product/1000 ft^2 (0.67 g) per m^2). The fungicide applications were made every two weeks. In comparison, the imidacloprid-treated plots received only a single application of active ingredient.
At the time of treatment, Curvularia disease was just beginning to develop (i.e., the mean percent infection in all plots was 3% of the turf cover). The spread of the disease was monitored weekly for twelve weeks, and turf quality, measured on a 0 to 9 scale (0=dead turf and 9=perfect quality). […] Effects of the various treatments on disease incidence are described in Table 6 (where A+a number represents days after application of imidacloprid). Data are expressed as % turf infected with disease.

powdery mildew = assay: Greenhouse trial, powdery mildew severity on Kentucky bluegrass (Example 4); type: in vivo, Erysiphe graminis; conditions: for Powdery mildew rating: 1 = best (no disease) to 9 = dead
Pythium aphanedermatum = assay: Pythium infection of bentgrass sod flats (Example 7); type: in vivo; conditions: for % Pythium: imidacloprid alone 481 g/Ha
Experimental: Bentgrass sod var. ‘Crenshaw’ was cut and placed in 6″×7″ (15 cm×17.5 cm) peat flats containing steam-sterilized 80/20 greens mix during the spring. To create conditions favorable for the development of Pythium, the flats were watered daily with an overhead misting system to provide conditions favorable to the development on disease. In addition, plots were fertilized weekly with 100 ml of a 244 ppm 20-20-20 Regal Green fertilizer solution. Imidacloprid at 481 g/Ha was applied four days after being placed in the flats. Fungicides were applied ten days after application of imidacloprid with a CO2 backpack sprayer at 2.0 gal. /1000 ft^2 (i.e., 81.5 liters/1000 m^2) using a single 8003E nozzle. Plots were inoculated with 2 one-inch […] sections of Pythium aphanedermatum-infested fescue leaves three days after application of the fungicides, and the percent infection in the plots was measured for the next 20 days. Results are presented in Table 5 (where A+a number represents days after application of imidacloprid).

grass = assay: Grass pot trial, dry weight and visual vigor under powdery mildew (Example 3); type: in vivo; conditions: 8 WAT, 1 to 5 scale, powdery mildew infestation, in words
Text: Six-inch (15-cm) diameter pots were filled to the rim with ProMix® BX potting soil and leveled off. Grass seed (0.5 g) was distributed evenly over the whole mix surface. The seed was watered in very gently. The grass was fertilized once 17 days later with Peters 20-10-20 at 100 ppm. The first cut was done on 11 days later; the grass was allowed to re-grow and cut 26 days later. Cutting was done at 2 in. (5 cm) height, using a round plastic cylinder that fit over the pot. The cut was made with hedge sheers and finished with scissors. Treatments were applied one day later using a volume of 20 ml per pot, followed with 117 ml of water/pot. The grass clippings were harvested an.d dried for dry weight determination 2 weeks after treatment (“WAT”) and 4 WAT. The grass was rated visually for vigor 8 WAT, using a 1 to 5 scale, before harvesting at the soil line. Dry weight and vigor data were subjected to analysis of variance (Fisher's Protected LSD, P=0.05).
The grass had germinated well within 30 days. Powdery mildew was noticed on some plants at 43 days after seeding, and became widespread in the plot. The powdery mildew coating appeared to grow more densely on the untreated plants. […] The invasion of the powdery mildew prevented the assessment of imidacloprid in the absence of pest pressure but it was serendipitously discovered that imidacloprid could have an effect on disease resistance in turf.

Rhizoctonia solani = assay: Brown Patch infection of bentgrass 'Crenshaw' turf flats (Example 6); type: in vivo; conditions: for % Brown Patch infection: imidacloprid alone 481 g/Ha
Experimental: Bentgrass var. ‘Crenshaw’ was seeded in 10 in.×12 in. (25 cm×30 cm) peat flats containing steam sterilized 80/20 greens mix. Flats were watered daily with an overhead misting system. Plots were fertilized on 11/20 with 200 ml of a 288 ppm 20-20-20 Regal Green fertilizer solution. Treatments were applied with a CO2 backpack sprayer at 2.0 gal./1000 ft^2 (i.e., 81.5 liters/1000 m^2) and a single 8003E nozzle. Imidacloprid was applied on 16 days after seeding and fungicides applied 21 days after seeding and 35 days after seeding. Plots were inoculated 18 days after seeding with 0.25 g of fescue seed infected with Rhizoctonia solani. Results are presented in Table 4 (where B+a number represents days after application of the herbicide component).

Curvularia [3] = assay: Disease infection of turf flats treated with Merit 75 WP (Example 5); type: in vivo; conditions: for percent infection (Curvularia): Kentucky bluegrass
Experimental: Four sets of twenty-four 10 in.×12 in. (25 cm×30 cm) flats were filled with sterilized sand and each set was seeded with either Kentucky bluegrass, Crenshaw L-93 bentgrass, bermudagrass, or K-31 tall fescue. Each flat was fertilized weekly with 20-20-20 soluble fertilizer at 0.144 g per 200 ml of water (equivalent to 4 lbs/year/acre). The trial was replicated once.
Twelve flats in each set were treated with Merit 75 WP equivalent to 8.6 oz/acre per 80 gal. (ca. […] per 100 liter) of water (spray application) for each turf variety and twelve flats remained untreated. Replicate 1 was treated 25 days after seeding and Replicate 2 was treated 28 days after seeding. Disease outbreaks began approximately the time of treatment. Assessments of the infection percentage were done at 13 and 25 days after treatment. […] The percent disease infection at the first and second assessments in the first trial was 22 and 26%, respectively, while the percent infection in the imidacloprid treated flats was 1 and 8% at the first and second assessment dates, respectively. In the second trial, disease pressure was lower, but the untreated flats had 3 and 8% infection at the first and second assessment dates, whereas the imidacloprid treated flats had 0.5 and 2% at the two assessment dates.

Pythium aphandermatum = assay: Pythium infection of bentgrass 'Crenshaw' turf flats (Example 2); type: in vivo, P. aphanidermatum; conditions: imidacloprid alone 481 g/Ha
Experimental: Bentgrass var. ‘Crenshaw’ was seeded in 10 in.×12 in. (ca. 25 cm×30 cm) peat flats containing steam sterilized 80/20 greens mix. Flats were watered daily with an overhead misting system. Plots were fertilized on 26 days later with 200 ml of a 288 ppm 20-20-20 Regal Green fertilizer solution. Treatments were applied with a CO2 backpack sprayer at 2.0 gal./1000 ft^2 (i.e., 81.5 liters/1000 m^2), with a single 8003E nozzle. lmidacloprid (481 g/Ha) was applied the same day and mancozeb fungicide was applied one week later. Two doses of each fungicide were tested. Plots were inoculated with Pythium aphandermatum 2 days after the fungicides were applied by placing two 1-in (2.5-cm) pieces of infested fescue leaves on each flat. Results are presented in Table 2 (where B+a number represents days after application of the herbicide component).

O=[N+]([O-])NC1=NCCN1Cc1ccc(Cl)nc1 [imidacloprid]
% Dollar Spot ([1]; B + 7): 16.7%
% Dollar Spot ([1]; B + 10): 28.3%
% Dollar Spot ([1]; B + 13): 35.0%
% Dollar Spot ([1]; B + 17): 38.3%
% Dollar Spot ([1]; B + 21): 41.7%
% Dollar Spot ([1]; B + 24): 48.3%
effect of imidacloprid alone on incidence of disease (Dollar Spot) ([1]; imidacloprid alone, in words): no affect on incidence of disease
% turf infected with disease (Curvularia) (Curvularia [2]; A + 1): 1%
% turf infected with disease (Curvularia) (Curvularia [2]; A + 8): 1%
% turf infected with disease (Curvularia) (Curvularia [2]; A + 15): 1%
% turf infected with disease (Curvularia) (Curvularia [2]; A + 22): 0%
% turf infected with disease (Curvularia) (Curvularia [2]; A + 29): 0%
% turf infected with disease (Curvularia) (Curvularia [2]; A + 37): 0%
% turf infected with disease (Curvularia) (Curvularia [2]; A + 43): 0%
% turf infected with disease (Curvularia) (Curvularia [2]; A + 51): 16%
% turf infected with disease (Curvularia) (Curvularia [2]; A + 58): 21%
% turf infected with disease (Curvularia) (Curvularia [2]; A + 66): 54%
% turf infected with disease (Curvularia) (Curvularia [2]; A + 72): 30%
% turf infected with disease (Curvularia) (Curvularia [2]; A + 79): 34%
% turf infected with disease (Curvularia) (Curvularia [2]; A + 86): 38%
% turf infected with disease (Curvularia) (Curvularia [2]; A + 94): 16%
development of Curvularia disease incidence compared with the other plots (Curvularia [2]; after 8 WAT to end of trial, in words): increased at a much slower rate than did the untreated control
Powdery mildew rating (powdery mildew; 2 Weeks after treatment, 0.25 lbs/A (0.28 kg/Ha)): 3.4
Powdery mildew rating (powdery mildew; 2 Weeks after treatment, 0.4 lbs/A (0.45 kg/Ha)): 3.4
Powdery mildew rating (powdery mildew; 2 Weeks after treatment, 1.0 lbs/A (1.12 kg/Ha)): 3.4
disease severity rating (powdery mildew) (powdery mildew; 6 WAT evaluation, treatments of imidacloprid, untreated 4.2, 1 to 9 scale): 3.1
Powdery mildew rating (powdery mildew; 6 Weeks after treatment, 0.25 lbs/A (0.28 kg/Ha)): 3.2
Powdery mildew rating (powdery mildew; 6 Weeks after treatment, 0.4 lbs/A (0.45 kg/Ha)): 3.1
Powdery mildew rating (powdery mildew; 6 Weeks after treatment, 1.0 lbs/A (1.12 kg/Ha)): 3.1
% Pythium (Pythium aphanedermatum; A + 8): 17.5%
% Pythium (Pythium aphanedermatum; A + 11): 32.5%
% Pythium (Pythium aphanedermatum; A + 15): 40.0%
% Pythium (Pythium aphanedermatum; A + 18): 38.8%
% Pythium (Pythium aphanedermatum; A + 22): 25.0%
% Pythium (Pythium aphanedermatum; A + 28): 12.0%
Pythium in plots treated with imidacloprid alone versus untreated plots (Pythium aphanedermatum; from 11 days after treatment on, in words): much less Pythium than did the untreated plots
visual vigor ratings (grass): visual vigor ratings indicate a benefit from the imidacloprid treatments
% Brown Patch infection (Rhizoctonia solani; B + 6): 53.3%
% Brown Patch infection (Rhizoctonia solani; B + 8): 73.3%
% Brown Patch infection (Rhizoctonia solani; B + 10): 80.0%
effect of imidacloprid alone on the disease (Brown Patch) (Rhizoctonia solani; in words): no effect on the disease
percent infection (Curvularia) (Curvularia [3]; first trial, first assessment (13 days after treatment), untreated 22%): 1%
percent infection (Curvularia) (Curvularia [3]; first trial, second assessment (25 days after treatment), untreated 26%): 8%
percent infection (Curvularia) (Curvularia [3]; second trial, first assessment, untreated 3%): 0.5%
percent infection (Curvularia) (Curvularia [3]; second trial, second assessment, untreated 8%): 2%
control of the other diseases on the other turf varieties (Curvularia [3]; bentgrass, bermudagrass, tall fescue, either trial, in words): did not provide control of the other diseases
control of Curvularia on the Kentucky bluegrass (Curvularia [3]; both replicates, in words): good control of Curvularia
% Pythium (Pythium aphandermatum; B + 6): 11.7%
% Pythium (Pythium aphandermatum; B + 8): 20.0%
% Pythium (Pythium aphandermatum; B + 14): 36.7%
